Measured values taken from the NIST ThermoML archive (doi:10.1016/j.fluid.2015.09.003).
Numbers after ± are expanded uncertainties.

Experiment: activity coefficient (dimensionless); of the first substance listed, at infinite dilution; xn = mol fraction of the nth substance listed
Conditions: 101 kPa, Liquid, Chromatography, x1 = 0

**Q.** For `CC(=O)C(C)C` [3-methyl-2-butanone] + CCOS(=O)(=O)[O-].CC[n+]1cccc(C)c1, which activity coefficient (333.2 K) is on record?
**A.** The activity coefficient was 4.51 ± 0.21.

**Q.** And the activity coefficient (343.15 K)?
**A.** The activity coefficient was 4.62 ± 0.21.

**Q.** What about the activity coefficient (353.09 K) of the same compound?
**A.** The activity coefficient was 4.73 ± 0.22.

**Q.** And the activity coefficient (363.06 K)?
**A.** The activity coefficient was 4.79 ± 0.22.

**Q.** What about the activity coefficient (372.99 K) of the same compound?
**A.** The activity coefficient was 4.95 ± 0.23.

**Q.** Which results are given for `CC(=O)CC(C)C` [4-methylpentan-2-one] + CCOS(=O)(=O)[O-].CC[n+]1cccc(C)c1?
**A.** activity coefficient (333.2 K): 6.97 ± 0.32; activity coefficient (343.15 K): 6.99 ± 0.32; activity coefficient (353.08 K): 7.03 ± 0.32; activity coefficient (363.06 K): 7.05 ± 0.32; activity coefficient (372.99 K): 7.12 ± 0.33

**Q.** With `CC(C)=O` [acetone] + CCOS(=O)(=O)[O-].CC[n+]1cccc(C)c1 as the compound, how does the activity coefficient (323.24 K) read?
**A.** Its activity coefficient is 1.78 ± 0.08.

**Q.** And the activity coefficient (333.19 K)?
**A.** The activity coefficient was 1.8 ± 0.08.

**Q.** And the activity coefficient (343.16 K)?
**A.** Its activity coefficient is 1.84 ± 0.08.

**Q.** What about the activity coefficient (353.11 K) of the same compound?
**A.** Its activity coefficient is 1.88 ± 0.08.

**Q.** And the activity coefficient (363.08 K)?
**A.** The activity coefficient was 1.92 ± 0.08.

**Q.** What about the activity coefficient (372.99 K) of the same compound?
**A.** Its activity coefficient is 1.98 ± 0.09.

**Q.** Which results are given for `CCCCO` [butan-1-ol] + CCOS(=O)(=O)[O-].CC[n+]1cccc(C)c1?
**A.** activity coefficient (353.1 K): 1.13 ± 0.03; activity coefficient (363.06 K): 1.1 ± 0.03; activity coefficient (373 K): 1.08 ± 0.03

**Q.** With `CCC(C)O` (stereo not given) [butan-2-ol] + CCOS(=O)(=O)[O-].CC[n+]1cccc(C)c1 as the compound, how does the activity coefficient (333.19 K) read?
**A.** The activity coefficient was 1.27 ± 0.04.

**Q.** And the activity coefficient (343.14 K)?
**A.** The activity coefficient was 1.25 ± 0.04.

**Q.** And the activity coefficient (353.1 K)?
**A.** Its activity coefficient is 1.24 ± 0.04.

**Q.** What about the activity coefficient (363.05 K) of the same compound?
**A.** The activity coefficient was 1.23 ± 0.04.

**Q.** And the activity coefficient (373 K)?
**A.** Its activity coefficient is 1.23 ± 0.04.

**Q.** What does the source list for `CCC(C)=O` [butanone] + CCOS(=O)(=O)[O-].CC[n+]1cccc(C)c1?
**A.** activity coefficient (323.25 K): 2.7 ± 0.12; activity coefficient (333.2 K): 2.74 ± 0.12; activity coefficient (343.16 K): 2.78 ± 0.13; activity coefficient (353.1 K): 2.84 ± 0.13; activity coefficient (363.07 K): 2.88 ± 0.13; activity coefficient (372.99 K): 2.95 ± 0.13

**Q.** With `CCO` [ethanol] + CCOS(=O)(=O)[O-].CC[n+]1cccc(C)c1 as the compound, how does the activity coefficient (333.18 K) read?
**A.** The activity coefficient was 0.6 ± 0.03.

**Q.** And the activity coefficient (343.13 K)?
**A.** Its activity coefficient is 0.59 ± 0.03.

**Q.** What about the activity coefficient (353.1 K) of the same compound?
**A.** The activity coefficient was 0.58 ± 0.03.

**Q.** What about the activity coefficient (363.09 K) of the same compound?
**A.** The activity coefficient was 0.58 ± 0.03.

**Q.** And the activity coefficient (373.01 K)?
**A.** Its activity coefficient is 0.57 ± 0.03.

**Q.** Which activity coefficient (323.26 K) does the source give for `CO` [methanol] + CCOS(=O)(=O)[O-].CC[n+]1cccc(C)c1 here?
**A.** Its activity coefficient is 0.32 ± 0.04.

**Q.** What about the activity coefficient (333.2 K) of the same compound?
**A.** Its activity coefficient is 0.33 ± 0.04.

**Q.** And the activity coefficient (343.15 K)?
**A.** Its activity coefficient is 0.33 ± 0.04.

**Q.** What about the activity coefficient (353.11 K) of the same compound?
**A.** The activity coefficient was 0.33 ± 0.04.

**Q.** And the activity coefficient (363.07 K)?
**A.** Its activity coefficient is 0.33 ± 0.04.

**Q.** What about the activity coefficient (373 K) of the same compound?
**A.** The activity coefficient was 0.33 ± 0.04.

**Q.** Which results are given for `CCCCCO` [pentan-1-ol] + CCOS(=O)(=O)[O-].CC[n+]1cccc(C)c1?
**A.** activity coefficient (353.09 K): 1.66 ± 0.07; activity coefficient (363.05 K): 1.59 ± 0.06; activity coefficient (373.01 K): 1.52 ± 0.06

**Q.** What does the source list for `CCCC(C)=O` [pentan-2-one] + CCOS(=O)(=O)[O-].CC[n+]1cccc(C)c1?
**A.** activity coefficient (333.2 K): 4.35 ± 0.2; activity coefficient (343.15 K): 4.38 ± 0.2; activity coefficient (353.12 K): 4.44 ± 0.2; activity coefficient (363.05 K): 4.46 ± 0.2; activity coefficient (372.99 K): 4.52 ± 0.21

**Q.** For `CCCO` [propan-1-ol] + CCOS(=O)(=O)[O-].CC[n+]1cccc(C)c1, which activity coefficient (333.18 K) is on record?
**A.** Its activity coefficient is 0.81 ± 0.03.

**Q.** And the activity coefficient (343.13 K)?
**A.** The activity coefficient was 0.8 ± 0.03.

**Q.** What about the activity coefficient (353.1 K) of the same compound?
**A.** Its activity coefficient is 0.8 ± 0.03.

**Q.** What about the activity coefficient (363.06 K) of the same compound?
**A.** Its activity coefficient is 0.79 ± 0.03.

**Q.** And the activity coefficient (373 K)?
**A.** The activity coefficient was 0.78 ± 0.03.

**Q.** For `CC(C)O` [propan-2-ol] + CCOS(=O)(=O)[O-].CC[n+]1cccc(C)c1, which activity coefficient (323.24 K) is on record?
**A.** The activity coefficient was 1 ± 0.03.

**Q.** What about the activity coefficient (333.19 K) of the same compound?
**A.** Its activity coefficient is 0.97 ± 0.03.

**Q.** What about the activity coefficient (343.14 K) of the same compound?
**A.** The activity coefficient was 0.96 ± 0.03.

**Q.** And the activity coefficient (353.09 K)?
**A.** The activity coefficient was 0.94 ± 0.03.

**Q.** And the activity coefficient (363.06 K)?
**A.** The activity coefficient was 0.93 ± 0.03.

**Q.** What about the activity coefficient (373 K) of the same compound?
**A.** Its activity coefficient is 0.92 ± 0.03.
